Results published in patent US20110039825A1, “LIGANDS OF ALPHA-ADRENOCEPTORS, DOPAMINE, HISTAMINE, IMIDAZOLINE AND SEROTONIN RECEPTORS AND THEIR USE” (Alla Chem, LLC, priority 2007, published 2011).
Read-outs that look alike come from different tables or passages of the source.

How the values were obtained:
human D2S receptor = target: T1, human D2S receptor (Homo sapiens, UniProt P14416); assay: radioligand binding to dopamine receptor D2S ([3H] Spiperone); settings: for Dopamine receptor D2S, % inhibition: 10 μM ligand
T1 construct: expressed in transfected cells; host or cells: CHO
From the text: 7-C. […] For this purpose sDNA of human D2S receptor is expressed in CHO cells, as described in [Hayes G, Biden T J, Selbie L A and Shine J, Structural subtypes of the dopamine D2 receptor are functionally distinct. […] Mol. Endocrinol. […] Mol. Endocrinol. […] Spiperone is used as positive control.

human H1 receptor = target: T2, human H1 receptor (Homo sapiens, UniProt P35367); assay: radioligand binding to histamine receptor H1 ([3H] Pyrilamine); settings: for Histamine receptor H1, % inhibition: 10 μM ligand
T2 construct: expressed in transfected cells; host or cells: CHO-K1
From the text: Biochem Biophys Res Comm. 197(3): 1601-1608, 1993]. […] Biochem Biophys Res Comm. 197(3): 1601-1608, 1993].
Pyrilamine is used as positive control.

human α2A receptor = target: T3, human α2A receptor (Homo sapiens, UniProt P08913); assay: radioligand binding to adrenergic receptor α2A ([3H] MK-912)
T3 construct: expressed in transfected cells; host or cells: Sf9
T3 sequence (P08913 1-465): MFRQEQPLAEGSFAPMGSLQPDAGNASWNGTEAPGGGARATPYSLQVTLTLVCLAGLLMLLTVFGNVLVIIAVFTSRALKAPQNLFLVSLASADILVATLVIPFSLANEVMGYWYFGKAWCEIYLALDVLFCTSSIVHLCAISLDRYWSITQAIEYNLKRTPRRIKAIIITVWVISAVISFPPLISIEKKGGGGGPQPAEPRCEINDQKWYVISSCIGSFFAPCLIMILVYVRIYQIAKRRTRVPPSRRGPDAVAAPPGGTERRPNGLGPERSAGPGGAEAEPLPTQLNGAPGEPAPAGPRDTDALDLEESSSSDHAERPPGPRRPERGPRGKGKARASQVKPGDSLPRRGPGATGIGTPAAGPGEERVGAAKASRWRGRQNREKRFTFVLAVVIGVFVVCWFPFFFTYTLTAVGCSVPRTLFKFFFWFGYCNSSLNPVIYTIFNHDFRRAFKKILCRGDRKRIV
From the text: J Pharmacol ExpTher. […] Yohimbine is used as positive control.

human D1 receptor = target: T4, human D1 receptor (Homo sapiens, UniProt P21728); assay: radioligand binding to dopamine receptor D1 ([3H] SCH-23390); settings: for Dopamine receptor D1, % inhibition: 10 μM ligand
T4 construct: expressed in transfected cells; host or cells: CHO
From the text: For this purpose sDNA of human D1 receptor is expressed in CHO cells, as it was described in [Dearry A, Gingrich J A, Falardeau P, Fremeau R T Jr, Bates M D and Caron M G. Molecular cloning and expression of the gene for a human D1 dopamine receptor. Nature. […] Nature.

adrenergic receptor α1B = target: T5, adrenergic receptor α1B (Rattus norvegicus, UniProt P15823); assay: radioligand binding to adrenergic receptor α1B ([3H] Prazosin)
T5 construct: membrane species from rat liver (rat of Wistar breed) are prepared; from tissue; host or cells: rat (Wistar) liver membranes
T5 sequence (P15823 1-515): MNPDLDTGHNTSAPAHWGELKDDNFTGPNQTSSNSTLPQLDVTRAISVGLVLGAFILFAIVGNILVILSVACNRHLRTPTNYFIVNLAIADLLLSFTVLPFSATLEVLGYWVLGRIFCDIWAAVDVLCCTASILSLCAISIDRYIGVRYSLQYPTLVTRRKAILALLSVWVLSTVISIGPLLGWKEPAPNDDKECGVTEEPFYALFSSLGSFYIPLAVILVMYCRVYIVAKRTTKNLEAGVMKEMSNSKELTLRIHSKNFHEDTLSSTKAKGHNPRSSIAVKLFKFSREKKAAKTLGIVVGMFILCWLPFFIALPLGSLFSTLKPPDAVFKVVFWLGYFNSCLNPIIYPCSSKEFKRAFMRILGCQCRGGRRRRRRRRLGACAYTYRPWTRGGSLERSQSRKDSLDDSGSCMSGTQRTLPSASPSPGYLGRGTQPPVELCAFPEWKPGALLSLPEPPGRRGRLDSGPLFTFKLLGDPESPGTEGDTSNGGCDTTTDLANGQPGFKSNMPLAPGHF
From the text: Species heterogeneity of hepatic α1A-, α1B-, and α1C-subtypes. Biochem Biophys Res Commun. 186:760-7676 1992]. […] Prazosin is used as positive control.

human α1D receptor = target: T6, human α1D receptor (Homo sapiens, UniProt P25100); assay: radioligand binding to adrenergic receptor α1D ([3H] Prazosin)
T6 construct: expressed in transfected cells; host or cells: HEK-293
T6 sequence (P25100 1-572): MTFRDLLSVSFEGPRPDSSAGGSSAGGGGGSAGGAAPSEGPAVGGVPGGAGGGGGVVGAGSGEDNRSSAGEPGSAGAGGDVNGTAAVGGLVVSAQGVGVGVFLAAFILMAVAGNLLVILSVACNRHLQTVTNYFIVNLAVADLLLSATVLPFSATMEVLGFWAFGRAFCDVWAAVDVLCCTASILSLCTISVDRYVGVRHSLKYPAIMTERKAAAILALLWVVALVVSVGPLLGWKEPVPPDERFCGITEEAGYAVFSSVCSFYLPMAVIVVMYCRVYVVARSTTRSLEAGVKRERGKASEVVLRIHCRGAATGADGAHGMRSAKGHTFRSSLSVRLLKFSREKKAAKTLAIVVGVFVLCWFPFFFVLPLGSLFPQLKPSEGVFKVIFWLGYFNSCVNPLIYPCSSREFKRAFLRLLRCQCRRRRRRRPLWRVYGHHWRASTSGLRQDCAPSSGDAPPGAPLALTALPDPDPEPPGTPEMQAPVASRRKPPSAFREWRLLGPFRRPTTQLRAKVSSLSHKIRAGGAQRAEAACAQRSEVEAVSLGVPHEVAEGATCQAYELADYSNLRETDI
From the text: 6-C. […] For this purpose sDNA of human α1D receptor is expressed in HEK-293 cells, as it was described in [T L Theroux, T A Esbenshade, R D Peavy and K P Minneman. Coupling efficiencies of human alpha 1-adrenergic receptor subtypes: titration of receptor density and responsiveness with inducible and repressible expression vectors. Mol. Pharmacol.; 50: 1376-1387, 1996]. […] Prazosin is used as positive control.

[1] = target: T7, recombinant human 5-HT6 receptor (Homo sapiens, UniProt P50406); assay: radioligand binding to serotonin receptor 5-HT6 ([3H] Lysergic acid diethylamide); settings: for inhibition at 1 µM: read-out: 5-HT6 % inhibition
T7 construct: expressed in transfected cells; host or cells: HeLa
From the text: Mol. Pharmacol. 43:320-327, 1993]. […] Methiothepin is used as positive control.

T4 sequence (P21728 whole entry): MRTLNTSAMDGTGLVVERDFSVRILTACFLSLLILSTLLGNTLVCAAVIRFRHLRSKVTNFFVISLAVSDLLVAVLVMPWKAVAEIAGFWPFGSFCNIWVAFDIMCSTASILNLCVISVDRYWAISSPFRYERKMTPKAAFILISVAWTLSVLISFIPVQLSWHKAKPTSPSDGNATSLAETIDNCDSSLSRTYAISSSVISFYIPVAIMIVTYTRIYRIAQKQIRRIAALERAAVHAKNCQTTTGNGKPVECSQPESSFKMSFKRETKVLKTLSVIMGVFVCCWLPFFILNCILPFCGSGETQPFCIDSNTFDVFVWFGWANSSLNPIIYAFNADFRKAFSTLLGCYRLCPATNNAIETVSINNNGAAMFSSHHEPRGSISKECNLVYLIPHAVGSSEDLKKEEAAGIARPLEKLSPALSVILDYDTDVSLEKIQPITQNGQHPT
T2 sequence (P35367 whole entry): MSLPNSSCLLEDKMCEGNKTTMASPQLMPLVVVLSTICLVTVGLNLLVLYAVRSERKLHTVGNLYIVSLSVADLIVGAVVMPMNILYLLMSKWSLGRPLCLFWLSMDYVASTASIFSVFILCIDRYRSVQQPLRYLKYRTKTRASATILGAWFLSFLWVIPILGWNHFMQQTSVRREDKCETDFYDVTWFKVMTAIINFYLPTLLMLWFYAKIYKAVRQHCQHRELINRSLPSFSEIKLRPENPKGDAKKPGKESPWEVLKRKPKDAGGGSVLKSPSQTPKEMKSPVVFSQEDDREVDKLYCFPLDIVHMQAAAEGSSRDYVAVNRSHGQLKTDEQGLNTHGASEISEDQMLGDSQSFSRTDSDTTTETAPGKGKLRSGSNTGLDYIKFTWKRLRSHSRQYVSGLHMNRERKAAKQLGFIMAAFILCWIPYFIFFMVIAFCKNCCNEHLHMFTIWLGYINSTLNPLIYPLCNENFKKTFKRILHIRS
T1 sequence (P14416 1-414 isoform P14416-2): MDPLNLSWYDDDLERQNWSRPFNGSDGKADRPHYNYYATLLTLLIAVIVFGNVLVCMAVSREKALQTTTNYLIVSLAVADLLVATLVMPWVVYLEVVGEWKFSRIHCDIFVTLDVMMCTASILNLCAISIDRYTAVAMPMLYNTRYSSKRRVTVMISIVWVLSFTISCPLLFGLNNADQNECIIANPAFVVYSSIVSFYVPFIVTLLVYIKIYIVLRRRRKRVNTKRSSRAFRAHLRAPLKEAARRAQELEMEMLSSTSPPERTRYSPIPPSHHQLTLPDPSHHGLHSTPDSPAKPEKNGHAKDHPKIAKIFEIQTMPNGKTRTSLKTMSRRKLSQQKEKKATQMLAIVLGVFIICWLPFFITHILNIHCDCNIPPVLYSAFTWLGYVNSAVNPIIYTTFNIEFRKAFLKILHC
T7 sequence (P50406 whole entry): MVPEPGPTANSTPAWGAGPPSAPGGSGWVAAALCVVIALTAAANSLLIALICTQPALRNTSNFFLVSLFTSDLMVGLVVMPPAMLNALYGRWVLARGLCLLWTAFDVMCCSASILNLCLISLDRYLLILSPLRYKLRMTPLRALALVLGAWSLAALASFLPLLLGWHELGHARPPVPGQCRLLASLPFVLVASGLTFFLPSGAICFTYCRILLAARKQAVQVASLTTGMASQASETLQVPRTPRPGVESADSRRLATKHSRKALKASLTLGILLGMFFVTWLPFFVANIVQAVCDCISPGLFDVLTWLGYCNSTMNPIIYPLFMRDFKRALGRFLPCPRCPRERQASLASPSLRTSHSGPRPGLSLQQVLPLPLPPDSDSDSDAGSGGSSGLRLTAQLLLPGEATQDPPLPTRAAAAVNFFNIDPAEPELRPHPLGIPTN

Row | SMILES | Dopamine receptor D2S, % inhibition (human D2S receptor) [%] | IC50 (human α2A receptor) [nM] | Ki (human α2A receptor) [nM] | Dopamine receptor D1, % inhibition (human D1 receptor) [%] | IC50 (adrenergic receptor α1B) [nM] | Ki (adrenergic receptor α1B) [nM] | IC50 (human α1D receptor) [nM] | Ki (human α1D receptor) [nM] | IC50 [1] [nM] | Ki [1] [nM] | nH 5-HT6 [1] | Histamine receptor H1, % inhibition (human H1 receptor) [%] | α-Adrenoceptor α2A, % inhibition (human α2A receptor; 10 μM ligand) [%] | α-Adrenoceptor α1B, % inhibition (adrenergic receptor α1B; 10 μM ligand) [%] | α-Adrenoceptor α1D, % inhibition (human α1D receptor; 10 μM ligand) [%] | other results
1 | CN1CCc2c(c3ccccc3n2Cc2ccccc2)C1 [1.9(1)•½NDSA, bis-(5-benzyl-2-methyl-2,3,4,5-tetrahydro-1H-pyrido[4,3-b]indole) naphtalene-1,5-disulfonate] | 51 | 123 | 46.1 | 77 | 1580 | 872 | 1330 | 656 | 103 | 47.6 | 1.07 |  |  |  |  | IC50 (human D2S receptor): 3000 nM; Ki (human D2S receptor): 1080 nM; nH D2S (human D2S receptor): 0.879; IC50 (human H1 receptor): 3.97 nM; Ki (human H1 receptor): 1.9 nM; nH H1 (human H1 receptor): 0.789; nH α2A (human α2A receptor): 1.13; α-Adrenoceptor α2A, % inhibition (human α2A receptor; 0.3 μM ligand): 73(0.3 μM) %; nH D1 (human D1 receptor): 1.38; nH α1B (adrenergic receptor α1B): 0.956; α-Adrenoceptor α1B, % inhibition (adrenergic receptor α1B; 3 μM ligand): 62(3 μM) %; nH α1D (human α1D receptor): 1.05; α-Adrenoceptor α1D, % inhibition (human α1D receptor; 3 μM ligand): 70(3 μM) %; 5-HT6 % inhibition ([1]; 0.3 μM ligand): 78%
2 | Cc1ccc2c(c1)[C@@H]1CN(C)CCC[C@@H]1N2CCc1ccc(C)nc1.Cl.Cl.Cl (relative stereo) [1.6.1(2)•3HCl] | 31 |  |  | 55 |  |  |  |  |  |  |  | 102 | 82 | 93 | 87 | 
3 | Cc1ccc2c(c1)c1c(n2CCc2ccccn2)CCN(C)C1.Cl.Cl [1.1.2(2-3)•2HCl] |  | 128 | 47.9 |  | 47 | 26 | 282 | 139 | 109 | 50.5 | 0.744 | 98 |  |  |  | inhibition at 1 µM ([1]; ligand concentration 1 μM): 97%
4 | Cc1ccc2c(c1)[C@H]1CN(C)CCC[C@@H]1N2CCc1cccnc1 [1.6.2(10)•3HCl] | 33 |  |  | 88 |  |  |  |  |  |  |  | 103 | 92 | 92 | 86 | inhibition at 1 µM [1]: 93%
